Laboratory results published in the supplement of paper PMC10307832.

Tests used:
Experiment in all cases: relative viability (nuclei count vs DMSO), 5 days (fraction); higher = more cells survive
[1] = compound: C[C@]1(O)C[C@@H](c2nc(-c3ccc4ccc(-c5ccccc5)nc4c3)c3c(N)nccn32)C1 [Linsitinib] + NC(=O)Nc1cc(-c2cccc(F)c2)sc1C(=O)N[C@H]1CCCNC1 [AZD7762] (partner 0.2 µM)
Method in brief: (§1)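 Each reported value is a median over duplicate plates. It expresses relative viability: treated-well nuclei count divided by vehicle-well nuclei count. Lung cancer cell lines in 1536-well plates were dosed by pin tool a day after seeding, alone with one drug or with a fixed anchor-drug dose plus five library-drug doses (not always all listed) in √10 steps, and nuclei were counted after 5 days.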

[2] = compound: C[C@]1(O)C[C@@H](c2nc(-c3ccc4ccc(-c5ccccc5)nc4c3)c3c(N)nccn32)C1 [Linsitinib] + Cc1nc(NC(=O)N2CCC[C@H]2C(N)=O)sc1-c1ccnc(C(C)(C)C(F)(F)F)c1 [Alpelisib] (partner 2 µM)
Method in brief: as §1

[3] = compound: C[C@]1(O)C[C@@H](c2nc(-c3ccc4ccc(-c5ccccc5)nc4c3)c3c(N)nccn32)C1 [Linsitinib] + CC1(C)CCC(c2ccc(Cl)cc2)=C(CN2CCN(c3ccc(C(=O)NS(=O)(=O)c4ccc(N[C@H](CCN5CCOCC5)CSc5ccccc5)c(S(=O)(=O)C(F)(F)F)c4)cc3)CC2)C1 [Navitoclax] (partner 0.5 µM)
Method in brief: as §1

[4] = compound: Cc1ccc(C(=O)N(CCCN)[C@@H](c2nc3cc(Cl)ccc3c(=O)n2Cc2ccccc2)C(C)C)cc1 [Ispinesib] + CC1(C)CCC(c2ccc(Cl)cc2)=C(CN2CCN(c3ccc(C(=O)NS(=O)(=O)c4ccc(N[C@H](CCN5CCOCC5)CSc5ccccc5)c(S(=O)(=O)C(F)(F)F)c4)cc3)CC2)C1 [Navitoclax] (partner 0.5 µM)
Method in brief: as §1

Cell Line | relative viability ([1]; first compound 0.01 µM) | relative viability ([1]; first compound 0.03162 µM) | relative viability ([1]; first compound 0.1 µM) | relative viability ([1]; first compound 0.3162 µM) | relative viability ([1]; first compound 1 µM) | relative viability ([2]; first compound 0.01 µM) | relative viability ([2]; first compound 0.03162 µM) | relative viability ([2]; first compound 0.1 µM) | relative viability ([2]; first compound 0.3162 µM) | relative viability ([2]; first compound 1 µM) | relative viability ([3]; first compound 0.01 µM) | relative viability ([3]; first compound 0.03162 µM) | relative viability ([3]; first compound 0.1 µM) | relative viability ([3]; first compound 0.3162 µM) | relative viability ([3]; first compound 1 µM) | relative viability ([4]; first compound 0.001 µM) | relative viability ([4]; first compound 0.003162 µM) | relative viability ([4]; first compound 0.01 µM) | relative viability ([4]; first compound 0.03162 µM) | relative viability ([4]; first compound 0.1 µM)
LK-2 | 0.295 | 0.482 | 0.245 | 0.179 | 0.154 | 1.04 | 1.12 | 1.33 | 0.804 | 1.11 | 0.875 | 0.829 | 0.759 | 0.575 | 0.531 | 0.93 | 0.808 | 1.01 | 0.661 | 0.298
LOU-NH91 | 0.763 | 0.701 | 0.742 | 0.693 | 0.58 | 0.743 | 0.656 | 0.7 | 0.76 | 0.602 | 0.786 | 0.651 | 0.707 | 0.686 | 0.678 | 0.647 | 0.71 | 0.64 | 0.407 | 0.333
LU99A | 0.285 | 0.435 | 0.371 |  | 0.196 | 0.517 | 0.547 | 0.505 | 0.417 | 0.332 | 0.975 | 0.892 | 0.749 | 0.602 | 0.691 | 0.857 | 0.757 | 1.02 | 0.627 | 0.141
LXF-289 | 1.04 | 1.04 | 1.13 | 0.731 | 1.04 | 0.992 | 0.988 | 1.1 | 0.841 | 1.02 | 0.951 | 0.932 | 0.929 | 0.783 | 0.939 | 0.934 | 0.995 | 1.12 | 0.922 | 0.469
NCI-H23 | 0.239 | 0.205 | 0.215 | 0.254 | 0.23 | 0.728 | 0.577 | 0.582 | 0.448 | 0.516 | 0.811 | 0.854 | 0.761 | 0.581 | 0.652 | 0.803 | 0.783 | 1.04 | 0.794 | 0.472
NCI-H322M | 0.575 | 0.411 | 0.485 | 0.49 | 0.414 | 0.711 | 0.774 | 0.921 | 0.703 | 0.673 | 1.3 | 1.4 | 1.25 | 1.23 | 1.27 | 1.2 | 1.13 | 1.15 | 1.14 | 1.15
NCI-H441 | 1.2 | 1.07 | 1.29 | 0.831 | 0.898 | 0.863 | 0.839 | 0.804 | 0.539 | 0.629 | 0.803 | 0.795 | 1.12 | 0.397 | 0.439 | 0.764 | 0.477 | 0.587 | 0.238 | 0.218
NCI-H460 | 0.566 | 0.614 | 0.698 |  | 0.398 | 0.46 | 0.325 | 0.475 | 0.329 | 0.351 | 1.08 | 0.97 | 1.25 | 1.01 | 1.12 | 1.43 | 1.33 |  | 0.785 | 0.0262
NCI-H596 | 1.19 | 1.06 | 1 | 1.14 | 0.92 | 0.508 | 0.532 | 0.406 | 0.418 | 0.443 | 0.835 | 1.01 | 0.938 | 0.805 | 0.931 | 0.865 | 0.9 | 1.07 | 1.05 | 0.458
NCI-H647 | 0.467 | 0.504 | 0.493 | 0.212 | 0.331 | 1.14 | 1.19 | 0.914 |  | 0.951 | 1.24 | 1.12 | 1.18 |  | 1.05 | 1.22 | 0.978 | 1.41 | 0.461 | 0.0986
NCI-H727 | 0.39 | 0.503 | 0.346 | 0.363 | 0.376 | 0.489 | 0.394 | 0.564 | 0.378 | 0.278 | 0.406 | 0.539 | 0.376 | 0.19 | 0.184 |  | 0.519 | 0.507 | 0.387 | 0.26
NCI-H838 | 0.933 | 0.85 | 0.903 | 0.713 | 0.77 | 1 | 0.979 | 1.05 | 0.853 | 0.755 | 1.14 | 1.12 | 1.21 | 0.875 | 0.986 | 1.33 | 1.23 | 1.37 | 0.994 | 0.25
NCI-H1355 | 0.66 | 0.604 | 0.633 | 0.602 | 0.329 | 0.78 | 0.718 | 0.675 | 0.632 | 0.549 | 0.888 | 0.868 | 0.881 | 0.729 | 0.659 | 0.996 | 0.878 | 0.927 | 1.08 | 0.688
NCI-H1395 | 0.373 |  | 0.394 | 0.477 | 0.38 | 0.945 | 0.915 | 1.24 | 0.962 | 0.957 | 1.14 | 0.904 | 1.47 | 1 | 1.15 | 1.32 | 1.1 | 1.16 | 0.553 | 0.326
NCI-H1437 | 1.15 | 1.16 | 1.11 | 0.964 | 1.1 | 0.977 | 0.955 | 0.986 | 0.901 | 0.903 | 1.03 | 0.994 | 1.1 | 1.01 | 1.02 | 1.28 | 1.1 | 1.43 | 1.06 | 0.295
NCI-H1651 | 0.221 | 0.467 | 0.429 | 0.525 | 0.447 | 1.03 | 0.989 | 0.822 | 0.738 | 0.957 | 0.978 | 1.1 | 0.925 | 0.958 | 0.981 | 1.28 | 1.13 | 1.3 | 0.991 | 0.213
